Where two headings read alike, the source gives them in different places. Marks after values point to notes of the source that are not given here.
How the values were obtained:
[1] = Plasma PK of total radioactivity, [14C]-nifurtimox and metabolites after oral dosing (HPLC-LSC); assay type: in vivo; conditions: male Wistar rats; for %AUC(0-8) (relative to total radioactivity AUC(0-8)): oral 2.5 mg/kg, M-2+M-3, M-4, M-5 are estimates based on AUC(0-tn); for half-life / Tmax: rat; for half-life: plasma, interval up to 8 h, read-out: t½ (converted)
Experimental: (§1) Animals were housed in suitable metabolism cages. […] Blood cells and plasma were separated by centrifugation. Plasma was stored at ≤-15°C prior to analysis. […] All biological samples were weighed immediately. […] The remaining carcass was also wet-weighed.
Aliquots of individual plasma samples were pooled separately for each timepoint by equal volume. For protein precipitation, pooled plasma was treated with a three-fold volume of acetonitrile. Samples were homogenized and precipitated by centrifugation (20,000 g, 5 min). Samples were concentrated and analyzed using high-performance liquid chromatography (HPLC) with off-line radioactivity detection by LSC (HPLC-LSC).

[2] = Quantification of nifurtimox and metabolites in rat plasma after a single high dose (200 mg/kg); assay type: in vivo, Wistar rats; conditions: Wistar, rat, plasma, po, 200 mg/kg
Experimental: Blood cells and plasma were then separated by centrifugation, and the plasma was stored at ≤-15°C until required. For analysis, plasma samples were thawed at room temperature and homogenized by vortex mixing. Plasma samples were pooled separately for male and female rats by combining 25 µL from each of the 4 animals for each timepoint. […] To each pooled plasma (100 µL), calibration, or control sample, 300 µL of an internal standard solution containing [^2H8]-nifurtimox (500 ng/mL) and [^2H3]-M-6 (2500 ng/mL) in acetonitrile + 0.5% formic acid in water (v/v) was added and mixed thoroughly. All samples were then centrifuged (20,000 g, 5 min) to precipitate the protein. The supernatant was analyzed using a 1290 Infinity LC system equipped with a diode array detector and an Orbitrap Q-Exactive Plus HRMS (Thermo Fisher Scientific, Bremen, Germany) with a heated electrospray ionization source. […] The mobile phase gradient was: 0 min, 0% B; 2.5 min, 0% B; 3 min, 20% B; 8 min, 45% B; 9 min, 90% B; 10.1 min, 90% B; 12 min, 0% B; 13 min, 0% B. The following HRMS parameters were used: mass range, 120-200 Da (0-2.5 min) and 230-600 Da (2.5-13 min) in full scan mode; resolution, 280,000; ion source voltage, 3500 V; capillary temperature, 300°C; source temperature, 60°C.
The calibration was based on the relative peak area as a function of concentration obtained by linear regression. […] Thus, all concentrations in μg/mL were back-calculated to nmol/mL. The PK parameters for each analyte were calculated using ToxKin software, as described above.

[3] = Quantification of nifurtimox and metabolites in human urine (LC-HRMS); assay type: in vivo; conditions: single oral 120 mg nifurtimox; for AE,urine(0–24h), fasted patients: mean of 6 fasted patients with Chagas disease; for AE,urine(0–24h), fed patients: mean of 6 fed patients with Chagas disease
Experimental: Urine samples were collected from fasted and fed patients pre-dose (0 h) and at four post-dose intervals (0-4, 4-8, 8-12, and 12-24 h) and stored frozen until required. For analysis, urine samples were thawed at room temperature and homogenized by vortex mixing. […] Equal volumes (75 µL) of an internal standard solution of [^2H8]-nifurtimox dissolved in water (10 µg/mL) were added to each urine, calibration, or control sample and mixed thoroughly. Samples from 6 patients were then analyzed using liquid chromatography-high-resolution mass spectrometry (LC-HRMS) with a 1290 Infinity LC system equipped with a diode array detector and an Orbitrap Fusion™ Lumos™ Tribrid™ HRMS (Thermo Fisher Scientific, Bremen, Germany) with a heated electrospray ionization source. For quantification, the LC conditions were as described above for analysis of rat plasma, and the HRMS parameters were: mass range, 120-600 Da in full scan mode and all ion fragmentation in positive ionization mode; resolution, 240,000; ion source voltage, 3500 V; capillary temperature, 300°C; source temperature, 60°C.
The system was calibrated using the relative peak area as a function of concentration, which was obtained by linear regression. Quantification was performed on a mass basis (μg/mL), with the final calculation for the percentage of dose excreted in urine made on a molar basis to account for the substantial differences (up to ~2.5-fold) in the molecular masses of the compounds of interest. The analytical precision for all analytes was in the range of 1.1% to 4.4%, with an accuracy of 94% to 107%. All concentrations in μg/mL were back-calculated to nmol/mL, and these concentrations were then used to calculate a total molar amount based on the urine volume collected during each interval.

[4] = Mass balance and metabolite profiling in excreta after oral [14C]-nifurtimox in intact rats; conditions: intact male Wistar rats, 2.5 mg/kg oral, up to 120 h; 2.5 mg/kg
Experimental: After an adaption period, the animals were prepared for the study. Bile duct cannulation was performed on selected animals the day before their use in experiments.
In a mass balance study (n = 5) and a PK study (n = 2 per timepoint), 2.5 mg/kg b.w. […] For i.v. administration, 2.5 mg/kg b.w. […] In an additional stability study, male Wistar rats (n = 3 per timepoint) were administered 2.5 mg/kg b.w. […] The total radioactivity concentration in the dosage form was confirmed by liquid scintillation counting (LSC).
Animals were housed in suitable metabolism cages. Blood was collected from separate rats at 0.25, 0.5, 1, 1.5, 2, 3, 5, and 8 h post-dose and stored in lithium heparinized tubes. Blood cells and plasma were separated by centrifugation. Plasma was stored at ≤-15°C prior to analysis. […] At the end of the study, the cages were rinsed with water, and samples were collected. All biological samples were weighed immediately. Feces samples were homogenized with water to obtain a uniform radioactivity distribution. All samples were stored deep-frozen at ≤-15/-70°C before further processing. During the necropsy, selected organs and tissues were collected and wet-weighed. The remaining carcass was also wet-weighed. The carcass and all tissues were homogenized and stored at room temperature prior to processing for analysis. In the stability study, blood and urine were collected at 0.25 and 0.5 h post-dose. Plasma and urine were immediately frozen in liquid nitrogen and stored at -80°C to prevent degradation. The total radioactivity in samples and tissues was determined by LSC after appropriate sample preparation.
Aliquots of individual urine or bile samples were pooled separately for each time interval by equal volume and analyzed using HPLC-LSC. Aliquots of individual feces samples were pooled separately for each time interval, ensuring that each aliquot contained the same amount of radioactivity. The pooled samples were extracted twice with a mixture of acetonitrile/water (80:20 v/v, 2 x 0.5 mL). The resulting suspensions were centrifuged (20,000 g, 5 min), and the supernatants were then combined for each time interval, concentrated, and subjected to HPLC-LSC.
The amount of total radioactivity in urine, feces, bile, and tissues was determined by multiplying the volume or weight of the samples by the respective total radioactivity concentration. The amount of radioactivity recovered in the excreta (AE), cage wash, and tissues was compared with the administered radioactive dose to establish the radioactive balance. Cumulative excretion was calculated as the sum of the excretion for each collection interval. Arithmetic means and coefficients of variation (CV) were calculated for these percentages. During metabolite profiling, the concentration or amount of each analyte for each sample and timepoint or interval was calculated by multiplying the total radioactivity concentration or amount excreted of each sample with the percent area of each analyte obtained after HPLC-LSC separation.

[5] = Quantification of nifurtimox and metabolites in human plasma (LC-HRMS), plasma PK; assay type: in vivo; conditions: fed; for AUC(tlast-∞) (extrapolated proportion): pooled plasma of 6 patients, single oral 120 mg nifurtimox; for AUC, % of total quantified exposure: sum of AUC of nifurtimox and M-1 to M-6 = 100%, single oral 120 mg
Experimental: Plasma samples from timepoints 0, 0.25, 0.5, 0.75, 1, 1.5, 2, 2.5, 3, 4, 6, 8, 12, 15, and 24 h from 6 patients were analyzed. Blood samples were collected into lithium heparinized tubes. Blood cells and plasma were then separated by centrifugation, and the plasma was stored frozen until needed. For the analysis, plasma samples were thawed at room temperature and homogenized by vortex mixing. Equal volumes of plasma from the six patients for each timepoint were combined to a pooled volume of 200 µL. To precipitate protein, a 3-fold volume of acetonitrile/0.5% formic acid (v/v in water) was added to each pooled sample which was thoroughly mixed and then centrifuged at 20,000 g. […] For all analytes, the analytical precision ranged from 0.1% to 8.8%, and the accuracy was 95% to 108%.

[6] = Stability study: metabolite profiles in snap-frozen plasma and urine at early timepoints after oral [14C]-nifurtimox; assay type: in vivo, male Wistar rats; conditions: oral 2.5 mg/kg, snap-frozen
Experimental: as §1
The combined supernatant was analyzed directly using HPLC-LSC.

[7] = single oral 2.5 mg/kg [14C]-nifurtimox, pooled plasma
[8] = single oral 2.5 mg/kg [14C]-nifurtimox
[9] = female, read-out: AUC(0–24), female animals
[10] = female, read-out: AUC, female animals
[11] = female, read-out: Cmax, female animals
[12] = female, read-out: tmax, female animals
[13] = female, read-out: t½, female animals (converted)
[14] = male, read-out: AUC(0–24), male animals
[15] = male, read-out: AUC, male animals
[16] = male, read-out: Cmax, male animals
[17] = male, read-out: tmax, male animals
[18] = male, read-out: t½, male animals (converted)

AUC [1, 7] | AUC(0-tn) [1, 7] | Cmax [1, 7] | tn (time of last quantifiable concentration) [1, 7] | half-life [1, 8] | Tmax [1, 7] | AUC(0-t) [2, 9] | AUC [2, 10] | Cmax [2, 11] | Tmax [2, 12] | half-life [2, 13] | AUC(0-t) [2, 14] | AUC [2, 15] | Cmax [2, 16] | Tmax [2, 17] | half-life [2, 18] | AUC(tlast-∞) (extrapolated proportion) [5] | AUC, % of total quantified exposure [5] | Compound | AE,urine(0–24h), fasted patients [3] | AE,urine(0–24h), fed patients [3] | other results
767 µg-eq*h/L | 715 µg-eq*h/L | 138 µg-eq/L | 8 h | 1.36 h | 3 h | 36.7 µM·h | 44.2 µM·h | 2050 nM | 8 h | 4.6 h | 28.2 µM·h | 46.6 µM·h | 1390 nM | 24 h | 4.2 h | 7.6% | 1.8% | CC1CS(=O)(=O)CCN1/N=C/C(=O)CCC#N (stereo not drawn) [M-1] | 3.2 % of dose | 2.0 % of dose | %AUC(0-8) (relative to total radioactivity AUC(0-8)) [1]: 16.1%; AUC(0-8) [1, 7]: 715 µg-eq*h/L; component excreted in feces, oral dosing [4]: 1.5 % of the administered dose; share of sample radioactivity in plasma ([6]; 0.25 h post-dose): 1.4 % of sample radioactivity; share of sample radioactivity in plasma ([6]; 0.5 h post-dose): 2.3 % of sample radioactivity
– | – | – | – | – | – | 3.22 µM·h | 3.63 µM·h | 447 nM | 2 h | 8.5 h | 3.31 µM·h | 13.4 µM·h | 220 nM | 2 h | 63.3 h | 7.8% | 1.4% | CC1CS(=O)(=O)CCN1/N=C/C(CCC(=O)O)=N\O (stereo not drawn) [M-2] | 1.0 % of dose | 2.4 % of dose | –
– | – | – | – | – | – | 3.54 µM·h | 3.7 µM·h | 547 nM | 1 h | 5.8 h | 3.64 µM·h | 10.1 µM·h | 255 nM | 1 h | 39.6 h | 49.2% | 1.2^a % | CC1CS(=O)(=O)CCN1/N=C/C(=O)CCC(=O)O (stereo not drawn) [M-3] | 0.06 % of dose | 0.15 % of dose | component excreted in feces, oral dosing [4]: 3.6 % of the administered dose
177 µg-eq*h/L | 102 µg-eq*h/L | 32.1 µg-eq/L | 5 h | 3.76 h | 1.5 h | 1.42 µM·h | 2.43 µM·h | 186 nM | 3 h | 25.3 h | 4.64 µM·h | 8.02 µM·h | 328 nM | 3 h | 8.2 h | 11.7% | 0.5% | CC(=O)NC(CSc1ccc(=O)n(N2CCS(=O)(=O)CC2C)c1)C(=O)O (stereo not drawn) [M-5] | 3.4 % of dose | 6.6 % of dose | %AUC(0-8) (relative to total radioactivity AUC(0-8)) ([1]; 2.5 mg/kg): 2.30^c %
